Measurements taken from PMC2724550, “Citrus auraptene suppresses cyclin D1 and significantly delays N-methyl nitrosourea induced mammary carcinogenesis in female Sprague-Dawley rats” (BMC Cancer, 2009).

Experiments:
MDA-MB-231 cells = experiment: MDA-MB-231 cell proliferation assay (MTT); type: cell-based, human
Protocol: The human breast carcinoma cell line MDA-MB-231 was obtained from ATCC (Manassas, VA) and grown in a sterile humidified environment at 37°C and 5% CO2: 95% air with complete DMEM media. The proliferation study was done by MTT assay which uses a tetrazolium compound [3-(4, 5-dimethylthiazol-2-yl)-2,5-diphenyltetrazolium bromide; MTT], which is converted into a formazan product by living cells. The MDA-MB-231 cells were plated in a 96 well plate at 12,500 cells/well at a confluency of 40%. The serum containing media was replaced with serum free media 5 hrs before treatment. The cells were then treated with auraptene at 1 – 50 μM auraptene in DMSO (0.1%, v/v). The control cells received vehicle only (DMSO, 0.1% v/v). After 24 hrs of treatment the cells were treated with MTT for 2 h and the absorbance was measured at 540 nm.
Figure 2 Effects of auraptene on human breast carcinoma cells. (A) Effects of auraptene on MDA-MB-231 cell proliferation. Cells were serum starved for 5 h and then treated with 1–50 μM auraptene in […]. Cell proliferation was assessed using the MTT reagent. Figures represent % vehicle control (means ± S.E.) # Replicates = 2 plates at 6 wells each for the treatment groups and 12 wells for the control group (* statistically different from control group, p < 0.05, One-way ANOVA, Tukey test). (B) Effects of auraptene on MCF-7 cell proliferation. Cells were serum starved for 24 h. At 22 h after serum starvation the cells were treated with 1–50 μM auraptene in […]. At 24 h serum starvation, the cells were treated with IGF-1 (10 ng/mL). Cell proliferation was assessed using the MTS reagent. Figures represent % vehicle control (mean± S.E.) # Replicates = 2 plates at 6 wells each for the treatment groups. (* statistically different from IGF-1 group, p < 0.05, One-way ANOVA, Tukey test). (C) Effects of auraptene on IGF-1 induced cyclin D1 expression. MCF-7 cells were serum starved for 24 h. At 22 h after serum starvation the cells were treated with10 μM auraptene in […]. At 24 h serum starvation the cells were treated with IGF-1 (10 ng/mL). The cells were harvested at the 15, 30 minutes and at 1 h, 2 h, 4 h, 8 h and 24 h. The cell lysates were probed for cyclin D1. […] The lower band (36 KD) is cyclin D1 and the upper band is β-actin (43 KD).

cyclin D1 = experiment: Western blot of cyclin D1 expression in rat mammary tumors; type: in vivo, female Sprague-Dawley rats; conditions: 500 ppm in diet, compared to MNU only group, n = 10 per group
Protocol: The mammary tumors from the female Sprague-Dawley rats were analyzed for cyclin D1 expression and eukaryotic Initiation Factor 4E (eIF4E) as previously described. Briefly, samples were first homogenized in RIPA buffer [50 mM Tris-HCL (pH 7.4), 1% Triton-X, 150 mM NaCl, 1 mM EDTA, 1 mM sodium orthovanadate, 1 mM PMSF, 1 μg of aprotinin, leupeptin and pepstatin and 1 mM sodium fluoride]. The proteins were measured by Bradford method (using BSA as a standard), followed by the addition of 2 × sample buffer [0.125 M Tris, 10% (w/v) SDS, 40% (v/v) glycerol, 0.04% (w/v) bromophenol blue, and 80 mM dithiothreitol]. Samples were heated to 95°C for 5 min, and 10 μg of protein/well was loaded and resolved. The proteins were then transferred and detected for cyclin D1 expression as mentioned above. Lysate from MCF-7 cells treated with IGF-1 was used as positive control for cyclin D1.
Figure 5 Effects of dietary auraptene on cyclin D1 expression in rat mammary tumors. From the same tumor study, rat mammary tumors were homogenized and the lysates were used for western blot to analyze the cyclin D1 expression. […] (+ statistically different from MNU group, * statistically different from Auraptene 200 group, p < 0.05, One-way ANOVA, Tukey test).

## CC(C)=CCC/C(C)=C/COc1ccc2ccc(=O)oc2c1 [auraptene]
MDA-MB-231 cells; 10 μM auraptene, 24 hrs, MTT
  reduction in MDA-MB-231 cell proliferation: about 23%
MDA-MB-231 cells; 25 μM auraptene, 24 hrs, MTT
  suppression of MDA-MB-231 cell proliferation: 85%
MDA-MB-231 cells; 50 μM auraptene compared with 25 μM
  suppression of MDA-MB-231 cell proliferation: did not achieve any higher suppression of cell proliferation
MDA-MB-231 cells; Homo sapiens, MDA-MB-231, 24 hrs treatment, serum free media, MTT, read-out: concentration suppressing MDA-MB-231 cell proliferation by 50%
  IC50: 12 µM
Cyclin D1
  reduction of cyclin D1 expression in rat mammary tumors: 49%
